In patent US20220023306A1, “USE OF A PPAR-DELTA AGONIST IN THE TREATMENT OF FATTY ACID OXIDATION DISORDERS (FAOD)” (Reneo Pharmaceuticals, Inc., priority 2019, published 2022):

Legend:
rat muscle cell lines = assay: fatty acid oxidation in rat muscle cell lines; assay type: cell-based
human muscle cell lines = assay: fatty acid oxidation in human muscle cell lines; assay type: cell-based
[1] = system: very long-chain acyl-CoA dehydrogenase (VLCAD); assay: VLCAD enzymatic activity in cultured fibroblasts from symptomatic VLCAD-deficient FAOD patients (ETF fluorescence reduction ACAD activity assay); assay type: cell-based, human; conditions: cultured fibroblasts from symptomatic patients with VLCAD deficiency
Method: Subjects. Skin biopsies for fibroblast culture are performed on a clinical basis with written informed consent from subjects and/or legal guardians. Fibroblast cells with mutations in any one of the genes and/or proteins associated with a fatty acid oxidation disorder (FAOD) ae obtained from patients' skin biopsies, while wild type (WT) fibroblast cells are obtained from healthy individuals.
Fibroblast cells, in some cases, are obtained from subjects with a confirmed diagnosis of a fatty acid oxidation disorder (FAOD) (e.g. MCAD, VLCAD, CPT1, CACT, CPT2, LCHAD, and/or mitochondrial TFP deficiencies or mutations) or they, in some cases, are purchased is available from commercial sources, e.g. from the Coriell Institute for Medical Research (403 Haddon Avenue, Camden, N.J. 08103).
Cell culture and treatments. Cells are grown in Dulbecco's Modified Eagle Medium (DMEM), Corning Life Sciences, Manassas, Va., containing high glucose levels or in DMEM devoid of glucose for 48-72 hr. Both media are supplemented with fetal bovine serum, glutamine, penicillin and/or streptomycin. In some experiments, fibroblasts are incubated with N-acetylcysteine, resveratrol, mitoQ, Trolox (a hydro-soluble analogue of vitamin E), or bezafibrate, prior to the analysis of parameters.
A PPARδ agonist compound is dissolved in phosphate buffer saline, PBS, as a stock solution. […]

hPPARα = target: T1, hPPARα (Homo sapiens, UniProt Q07869); assay: PPAR transient transactivation assay, hPPARα; assay type: cell-based
T1 construct: expressed in transfected cells; host or cells: HEK293
T1 sequence (Q07869 239-466 limits assumed): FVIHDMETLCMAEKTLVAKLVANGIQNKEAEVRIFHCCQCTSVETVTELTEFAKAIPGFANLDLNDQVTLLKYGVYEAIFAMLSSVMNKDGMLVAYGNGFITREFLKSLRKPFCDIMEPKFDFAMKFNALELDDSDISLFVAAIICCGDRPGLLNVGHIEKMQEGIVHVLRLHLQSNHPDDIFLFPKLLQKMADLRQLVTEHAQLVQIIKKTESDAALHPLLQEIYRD
Method: “Activation” herein is defined as the abovementioned downstream response, which in the case of PPAR's is gene transcription. Gene transcription, in some cases, is measured indirectly as downstream production of proteins reflective of the activation of the particular PPAR subtype under study. Alternatively, an artificial reporter construct, in some cases, is employed to study the activation of the individual PPAR's expressed in cells. The ligand binding domain of the particular receptor to be studied, in some embodiments, is fused to the DNA binding domain of a transcription factor, which produces convenient laboratory readouts, such as the yeast GAL4 transcription factor DNA binding domain. The fusion protein, in some cases, is transfected into a laboratory cell line along with a Gal4 enhancer, which effects the expression of the luciferase protein. When such a system is transfected into a laboratory cell line, binding of a receptor agonist to the fusion protein will result in light emission.
The PPAR transient transactivation assay, in some cases, is based on transient transfection into human HEK293 cells of two plasmids encoding a chimeric test protein and a reporter protein respectively. […] The amount of luciferase protein is measured by light emission after addition of the appropriate substrate. […]

VLCAD enzymatic activity [1]: increased | activity on PPARα in transactivation assays (hPPARα): negligible activity | type of agonism on PPARα (hPPARα): partial agonist
Structure (SMILES): Cc1cc(OC/C=C(/c2ccc(F)cc2)c2ccc(C#CCN3CCOCC3)cc2)ccc1OCC(=O)O [Compound 1, (E)-[4-[3-(4-Fluorophenyl)-3-[4-[3-(morpholin-4-yl)propynyl]phenyl]allyloxy]-2-methyl-phenoxy]acetic acid]
fatty acid oxidation (rat muscle cell lines): dose-dependent increase | fatty acid oxidation (human muscle cell lines): dose-dependent increase
